The test relates to P388 leukemia ip, CD2F1 mice, survival T/C. Kind of test: NCI In Vivo Anticancer Drug Screen. Data for tumor model P388 Leukemia (intraperitoneal) in CD2F1 (CDF1) mice. To be noted: endpoint: median survival time, higher = longer survival. In short, it runs like this:
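Mice carrying the transplanted tumor received test compound or vehicle. Survival was recorded in each group, and the value is the treated-group measurement divided by that of the vehicle-treated control group.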

The mark [1] stands for this setting: dose: 12.5 mg/kg/injection, schedule: Q01DX005 (ip), vehicle: saline.
The mark [2] stands for this setting: dose: 12.5 mg/kg/injection, schedule: Q01DX005 (ip), vehicle: suspension in saline.
Where [3] appears, read: dose: 25.0 mg/kg/injection, schedule: Q01DX005 (ip), vehicle: saline.
Setting [4] is: dose: 50.0 mg/kg/injection, schedule: Q01DX005 (ip), vehicle: Klucel (hydroxypropylcellulose) (HPC).
Where [5] appears, read: dose: 50.0 mg/kg/injection, schedule: Q01DX005 (ip), vehicle: saline.
Setting [6] is: dose: 100.0 mg/kg/injection, schedule: Q01DX005 (ip), vehicle: Klucel (hydroxypropylcellulose) (HPC).
[7] abbreviates: dose: 100.0 mg/kg/injection, schedule: Q01DX005 (ip), vehicle: saline.
[8] abbreviates: dose: 12.5 mg/kg/injection, schedule: Q04DX003 (ip), vehicle: saline with Tween-80.
[9] abbreviates: dose: 25.0 mg/kg/injection, schedule: Q04DX003 (ip), vehicle: saline with Tween-80.
Where [10] appears, read: dose: 100.0 mg/kg/injection, schedule: Q04DX003 (ip), vehicle: saline with Tween-80.
[11] abbreviates: dose: 6.25 mg/kg/injection, schedule: Q01DX009 (ip), vehicle: saline with Tween-80.
[12] abbreviates: dose: 12.5 mg/kg/injection, schedule: Q01DX009 (ip), vehicle: saline with Tween-80.
The mark [13] stands for this setting: dose: 50.0 mg/kg/injection, schedule: Q01DX009 (ip), vehicle: saline.
The mark [14] stands for this setting: dose: 100.0 mg/kg/injection, schedule: Q01DX009 (ip), vehicle: saline.
The mark [15] stands for this setting: dose: 200.0 mg/kg/injection, schedule: Q01DX009 (ip), vehicle: saline.

The structures appear in SMILES notation. Several values for one entry are separate records, joined by “and”; a condition that tells them apart may be missing. Equal values may be shown once. Toxic doses and inconclusive results are not listed.

For `CC(C)(C)c1cc2c(c(C(C)(C)OC(=O)c3ccccc3)c1)SOC2(C)C`, the T/C runs as follows: under setting [1], 101 % of control; under setting [2], 102 % of control; under setting [3], 91 % of control; (dose: 25.0 mg/kg/injection, schedule: Q01DX005 (ip), vehicle: suspension in saline) 100 % of control; under setting [4], 100 % of control; under setting [5], 100 % of control. Moreover, the T/C (dose: 50.0 mg/kg/injection, schedule: Q01DX005 (ip), vehicle: suspension in saline) is 106 % of control; the T/C under setting [6] was 104 % of control; the T/C under setting [7] is 98 % of control; the T/C (dose: 100.0 mg/kg/injection, schedule: Q01DX005 (ip), vehicle: suspension in saline) is 102 % of control.

For `CNc1c([N+](=O)[O-])cc2[nH]c(C)nc2c1[N+](=O)[O-]`, the T/C is, setting by setting: (dose: 6.25 mg/kg/injection, schedule: Q04DX003 (ip), vehicle: saline with Tween-80) 103 % of control; under setting [8], 113 % of control; under setting [9], 99 % of control and 92 % of control.

Consider `O=c1nc(N2CCCC2)oc2cc3ccccc3cc12`, for which the T/C by setting is: (dose: 60.0 mg/kg/injection, schedule: Q01DX005 (ip), vehicle: Klucel (hydroxypropylcellulose) (HPC)) 95 % of control; (dose: 120.0 mg/kg/injection, schedule: Q01DX005 (ip), vehicle: Klucel (hydroxypropylcellulose) (HPC)) 98 % of control; (dose: 240.0 mg/kg/injection, schedule: Q01DX005 (ip), vehicle: Klucel (hydroxypropylcellulose) (HPC)) 95 % of control.

On to `O=C1c2ccccc2C(Br)CCC1Br` (centres undefined), for which the T/C reads like this: (dose: 100.0 mg/kg/injection, schedule: Q01DX009 (ip), vehicle: distilled water + Tween-80 + alcohol) 115 % of control; (dose: 200.0 mg/kg/injection, schedule: Q01DX009 (ip), vehicle: distilled water + Tween-80 + alcohol) 115 % of control; (dose: 400.0 mg/kg/injection, schedule: Q01DX009 (ip), vehicle: distilled water + Tween-80 + alcohol) 113 % of control.

In the case of `CCOC(=S)c1cc(C(=S)OCC)cc(C(C)(C)C)c1`, the T/C was 103 % of control under setting [10]; 108 % of control (dose: 200.0 mg/kg/injection, schedule: Q04DX003 (ip), vehicle: saline with Tween-80); 113 % of control (dose: 400.0 mg/kg/injection, schedule: Q04DX003 (ip), vehicle: saline with Tween-80).

In the case of `O=C(C=C(C(F)(F)F)C(F)(F)F)c1ccccc1Cl`, the T/C under setting [11] was 110 % of control, the T/C under setting [12] is 150 % of control, the T/C under setting [8] was 113 % of control and the T/C under setting [9] was 118 % of control.

Consider `O=[N+]([O-])c1ccc(C2OC(c3ccncc3)=NC2CO)cc1` (centres undefined), for which the T/C runs as follows: under setting [13], 97 % of control; under setting [14], 91 % of control; under setting [15], 106 % of control.

Consider `CC(=O)c1c(C)cc(C)c(C(C)=O)c1C`, for which the T/C was 102 % of control under setting [13], 96 % of control under setting [14] and 91 % of control under setting [15].

As to `C=C(COC(=O)/C=C\C)C(=O)OCC`, the T/C is, setting by setting: under setting [13], 106 % of control; under setting [14], 99 % of control; under setting [15], 106 % of control.

Regarding `O=c1[nH]c2cc([N+](=O)[O-])ccc2nc1/C=C(\O)c1cccc([N+](=O)[O-])c1`, the T/C reads like this: (dose: 30.0 mg/kg/injection, schedule: Q01DX005 (ip), vehicle: Klucel + Tween-80) 96 % of control; (dose: 60.0 mg/kg/injection, schedule: Q01DX005 (ip), vehicle: Klucel + Tween-80) 88 % of control and 90 % of control; (dose: 120.0 mg/kg/injection, schedule: Q01DX005 (ip), vehicle: Klucel + Tween-80) 87 % of control; (dose: 240.0 mg/kg/injection, schedule: Q01DX005 (ip), vehicle: Klucel + Tween-80) 89 % of control.

Regarding `ClCC(CCl)(CCl)CCl`, the T/C by setting is: (dose: 50.0 mg/kg/injection, schedule: Q04DX003 (ip), vehicle: saline with Tween-80) 105 % of control; under setting [10], 98 % of control.

As to `CCOC(=O)c1c[nH]c2ccc(N(CCCl)CCCl)cc12`, the T/C is, setting by setting: (dose: 5.33 mg/kg/injection, schedule: Q04DX003 (ip), vehicle: saline with Tween-80) 160 % of control; under setting [11], 150 % of control; (dose: 8.0 mg/kg/injection, schedule: Q04DX003 (ip), vehicle: saline with Tween-80) 160 % of control; (dose: 12.0 mg/kg/injection, schedule: Q04DX003 (ip), vehicle: saline with Tween-80) 170 % of control; under setting [12], 181 % of control; (dose: 18.0 mg/kg/injection, schedule: Q04DX003 (ip), vehicle: saline with Tween-80) 185 % of control. The T/C (dose: 25.0 mg/kg/injection, schedule: Q01DX009 (ip), vehicle: saline with Tween-80) was 109 % of control.

For `CCN(CC)CCOC(=O)c1c[nH]c2ccccc12`, the T/C (dose: 6.25 mg/kg/injection, schedule: Q01DX005 (ip), vehicle: Klucel (hydroxypropylcellulose) (HPC)) was 100 % of control; the T/C (dose: 12.5 mg/kg/injection, schedule: Q01DX005 (ip), vehicle: Klucel (hydroxypropylcellulose) (HPC)) is 105 % of control; the T/C (dose: 25.0 mg/kg/injection, schedule: Q01DX005 (ip), vehicle: Klucel (hydroxypropylcellulose) (HPC)) was 105 % of control; the T/C under setting [4] is 98 % of control and 95 % of control; the T/C under setting [6] was 100 % of control.

As to `COc1cccc2c1C(CO)N1C(C#N)C3CC(C(=O)O)C(C1C2)N3C` (centres undefined), the T/C was 116 % of control and 122 % of control (dose: 0.78 mg/kg/injection, schedule: Q01DX005 (ip), vehicle: suspension in saline); 122 % of control (dose: 1.56 mg/kg/injection, schedule: Q01DX005 (ip), vehicle: suspension in saline); 150 % of control (dose: 3.12 mg/kg/injection, schedule: Q01DX005 (ip), vehicle: saline); 157 % of control (dose: 6.25 mg/kg/injection, schedule: Q01DX005 (ip), vehicle: saline); 159 % of control (dose: 6.25 mg/kg/injection, schedule: Q01DX005 (ip), vehicle: suspension in saline); 160 % of control under setting [1]. In addition, the T/C was 150 % of control and 178 % of control and 186 % of control under setting [2]; 200 % of control under setting [3].

Take `CC(C)NCC(O)c1ccc(O)c2ncccc12` (centres undefined): the T/C under setting [5] was 100 % of control; the T/C under setting [7] is 100 % of control; the T/C (dose: 200.0 mg/kg/injection, schedule: Q01DX005 (ip), vehicle: saline) is 101 % of control.

Regarding `COP(=O)(OC)OC.COP(=O)(OC)OC.COP(=O)(OC)OC.COP(=O)(OC)OC.COP(=O)(OC)OC.COP(=O)(OC)OC.[Mn+2].[O-][Cl+3]([O-])([O-])O`, the T/C is, setting by setting: under setting [13], 99 % of control and 100 % of control; under setting [14], 111 % of control; under setting [15], 109 % of control; (dose: 400.0 mg/kg/injection, schedule: Q01DX009 (ip), vehicle: saline) 123 % of control.

For `CN1C(=O)n2c(nc3ccccc32)C(N2CCOCC2)(N2CCOCC2)C1=O`, the T/C by setting is: (dose: 100.0 mg/kg/injection, schedule: Q01DX001 (ip), vehicle: saline with Tween-80) 103 % of control; (dose: 200.0 mg/kg/injection, schedule: Q01DX001 (ip), vehicle: saline with Tween-80) 96 % of control; (dose: 400.0 mg/kg/injection, schedule: Q01DX001 (ip), vehicle: saline with Tween-80) 89 % of control.

With `CCOC(=O)C1=C(C)NC(CO)=C(C(=O)OCC)C1c1cccc([N+](=O)[O-])c1` (centres undefined), the T/C is 94 % of control (dose: 50.0 mg/kg/injection, schedule: Q01DX005 (ip), vehicle: saline with Tween-80); 95 % of control (dose: 100.0 mg/kg/injection, schedule: Q01DX005 (ip), vehicle: saline with Tween-80); 92 % of control (dose: 200.0 mg/kg/injection, schedule: Q01DX005 (ip), vehicle: saline with Tween-80).

In the case of `O=C(NC(CC1CCC2OCOC2C1)C(=O)O)c1ccccc1` (centres undefined), the T/C is 111 % of control (dose: 60.0 mg/kg/injection, schedule: Q01DX005 (ip), vehicle: saline with Tween-80); 102 % of control (dose: 120.0 mg/kg/injection, schedule: Q01DX005 (ip), vehicle: saline with Tween-80); 105 % of control (dose: 240.0 mg/kg/injection, schedule: Q01DX005 (ip), vehicle: saline with Tween-80).

For the molecule `C#CC(C)OCC(C)OC(C)=O` (centres undefined), the T/C runs as follows: (dose: 150.0 mg/kg/injection, schedule: Q01DX009 (ip), vehicle: saline with Tween-80) 88 % of control; (dose: 225.0 mg/kg/injection, schedule: Q01DX009 (ip), vehicle: saline with Tween-80) 88 % of control.

(Values after PubChem BioAssay AID330 (DTP/NCI, 2004).)
